Laboratory results taken from patent US20070134286A1, “Methods for reducing intimal hyperplasia, smooth muscle cell proliferation and restenosis in mammals” (priority 2004, published 2007).

Test system: primary culture of human coronary artery smooth muscle cells
Assay: Affymetrix U133Av2 microarray gene expression
Type: cell-based
Conditions: 100 nM, 30 hr, ratio to no-drug control
Description: Microarray: […] While the yield of total RNA was low ([…] total per sample), the RNAs were intact as judged by Agilent 2100 analysis. One μg of total RNA from each sample was used to prepare biotin-labeled cRNA target using standard Affymetrix protocols. Prepared cRNA targets were of good quality and quantity. The Affymetrix Human chip U133Av2 was used (22,000+ probe sets) and 10 μg cRNA target was applied to each array. […] Scanned images were loaded into the Rosetta Resolver 4.0 database and processed using the Resolver Affymetrix error model. Within Resolver the drug treated sample replicates (n=3) were informatically combined and ratios constructed relative to the combined control (no addition of drug) samples. The Resolver Affymetrix error model was used to develop each ratio and calculate a p-value. The Resolver error model is robust and includes reporter level, background and error values in the calculation of statistical significance. A combination of hierarchical clustering, gene ontology analysis and pathway mapping were used to assess the function of the regulated genes.

Question: What does the source list for `C=C1/C(=C\C=C2/CCC[C@]3(C)[C@@H]([C@H](C)CCCC(C)(C)O)CC[C@@H]23)C[C@@H](O)C[C@@H]1O` [calcitriol, 1-alpha-25-dihydroxyvitamin D3]?
Answer: FC CD1D antigen, d polypeptide (205789_at): 6.95; FC CDK5 regulatory subunit associated protein 2 (220935_s_at): 2.67; FC Kruppel-like factor 4 (gut) (220266_s_at): 2.67; FC PMS2 postmeiotic segregation increased 2 (S. cerevisiae) (209805_at): 2.85; FC Wilms tumor 1 (206067_s_at): 3.55; FC Wilms tumor 1 (216953_s_at): 6.63; FC Wilms tumor associated protein (206954_at): 2.96; FC basic helix-loop-helix domain containing, class B, 3 (221530_s_at): −2.00; FC cholecystokinin B receptor (210381_s_at): −1.65; FC cyclin F (204827_s_at): −1.09; FC cysteine and glycine-rich protein 2 (207030_s_at): −2.13; FC cysteine and glycine-rich protein 2 (211126_s_at): −2.21; FC ecotropic viral integration site 2A (204774_at): −1.77; FC fibroblast growth factor 9 (glia-activating factor) (206404_at): 2.07; FC insulin-like growth factor 1 (somatomedin C) (209540_at): 4.39; FC insulin-like growth factor 1 (somatomedin C) (209541_at): 2.78; FC insulin-like growth factor 1 (somatomedin C) (209542_x_at): 3.23; FC insulin-like growth factor 1 (somatomedin C) (211577_s_at): 3.47; FC mitogen-activated protein kinase 13 (210058_at): 2.27; FC mitogen-activated protein kinase 13 (210059_s_at): 3.27; FC myosin heavy polypeptide 10, non-muscle (213067_at): −2.03; FC putative lymphocyte G0/G1 switch gene (213524_s_at): 3.69; FC retinoblastoma-like 2 (p130) (212332_at): 1.10; FC suppressor of cytokine signaling 2 (203372_s_at): −2.29; FC suppressor of cytokine signaling 2 (203373_at): −2.50; FC tetraspan 1 (209114_at): −4.34; FC transforming growth factor, beta 2 (209909_s_at): 2.91; FC transforming growth factor, beta 2 (220407_s_at): 2.97; FC transforming growth factor, beta 3 (209747_at): 2.83; FC angiopoietin 1 (NM_001146) (Table 4): 2.0; FC coagulation factor II (thrombin) receptor-like 1 (NM_005242) (Table 4): −1.7; FC endothelin receptor type B (NM_000115) (Table 4): 3.4; FC fibroblast growth factor 9 (glia-activating factor) (NM_002010) (Table 4): 2.1; FC fibroblast growth factor receptor 3 (achondroplasia, thanatophoric dwarfism) (NM_000142) (Table 4): 1.9; FC insulin-like growth factor 1 (somatomedin C) (NM_000618) (Table 4): 2.8; FC matrix metalloproteinase 14 (membrane-inserted) (NM_004995) (Table 4): 2.1; FC natriuretic peptide precursor B (NM_002521) (Table 4): −2.0; FC oxytocin receptor (NM_000916) (Table 4): −3.0; FC phospholamban (NM_002667) (Table 4): −2.6; FC prostaglandin-endoperoxide synthase 1 (prostaglandin G/H synthase and cyclooxygenase) (NM_000962) (Table 4): 2.2; FC thrombomodulin (NM_000361) (Table 4): 3.3; FC thrombospondin 1 (AI812030) (Table 4): −3.2; FC transforming growth factor, beta 2 (NM_003238) (Table 4): 2.9; FC transforming growth factor, beta 3 (J03241) (Table 4): 2.9
